Laboratory results from ChEMBL document CHEMBL1201862, “PubChem BioAssay data set” (2004).
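Test compounds were applied to cells in 96-well plates for 48 hours at 5 doses. The concentration for 50% growth inhibition is given as GI50.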 Calls of active or inactive are those of the source. No stated cut-off is given here; in the data, active = GI50 up to about 1.1 µM and inactive = higher.

Experiments:
Assay in all cases: NCI anticancer screen, dose series, 48 h
MDA-MB-231 = tested on: MDA-MB-231
NCI-H23 = tested on: NCI-H23
ACHN = tested on: ACHN
SK-MEL-2 = tested on: SK-MEL-2
MDA-MB-435 = tested on: MDA-MB-435
HCT-15 = tested on: HCT-15
KM12 = tested on: KM12
IGROV-1 = tested on: IGROV-1
DU-145 = tested on: DU-145
SF-539 = tested on: SF-539
M14 = tested on: M14
NCI-H226 = tested on: NCI-H226
MOLT-4 = tested on: MOLT-4
SR = tested on: SR
A549 = tested on: A549
U-251 = tested on: U-251
OVCAR-8 = tested on: OVCAR-8
SF-295 = tested on: SF-295
SK-MEL-28 = tested on: SK-MEL-28
MDA-N = tested on: MDA-N

SMILES	GI50 (MDA-MB-231)	GI50 (NCI-H23)	GI50 (ACHN)	GI50 (SK-MEL-2)	GI50 (MDA-MB-435)	GI50 (HCT-15) [µM]	GI50 (KM12)	GI50 (IGROV-1)	GI50 (DU-145)	GI50 (SF-539)	GI50 (M14)	GI50 (NCI-H226)	GI50 (MOLT-4)	GI50 (SR)	GI50 (A549)	GI50 (U-251)	GI50 (OVCAR-8)	GI50 (SF-295)	GI50 (SK-MEL-28)	GI50 (MDA-N)
N#[N+]c1cc2c(cc1Br)-c1ccccc1C2	> 100 µM (inactive)	> 100 µM (inactive)	> 100 µM (inactive)	83.9 µM (inactive)	81.8 µM (inactive)	> 100	> 100 µM (inactive)	38.8 µM (inactive)	> 100 µM (inactive)	> 100 µM (inactive)	> 100 µM (inactive)	51.6 µM (inactive)	10.3 µM (inactive)	0.413 µM (active)	95.9 µM (inactive)	82.2 µM (inactive)	15.6 µM (inactive)	> 100 µM (inactive)	> 100 µM (inactive)	
CCOC(=O)c1sc2nc(SC)nc3c2c1NCN3C1CC1	> 100 µM (inactive)	> 100 µM (inactive)	> 100 µM (inactive)	> 100 µM (inactive)	> 100 µM (inactive)	> 100	> 100 µM (inactive)	> 100 µM (inactive)	> 100 µM (inactive)		> 100 µM (inactive)	> 100 µM (inactive)			> 100 µM (inactive)	> 100 µM (inactive)	36.6 µM (inactive)	> 100 µM (inactive)	> 100 µM (inactive)	
Nc1nc(Cl)c2ncn(Cc3ccccc3CCl)c2n1	2.96 µM (inactive)	3.03 µM (inactive)	5.69 µM (inactive)	18.5 µM (inactive)	6.07 µM (inactive)	2.69	15.7 µM (inactive)	6.34 µM (inactive)	14.7 µM (inactive)	18 µM (inactive)	5.73 µM (inactive)	2.64 µM (inactive)	5.19 µM (inactive)	3.34 µM (inactive)	22 µM (inactive)	3.46 µM (inactive)	3.86 µM (inactive)	7.4 µM (inactive)	4.81 µM (inactive)	
COC(=O)c1cc2c3c(ccc2[nH]1)N(C(=O)c1cc2cc(OC)c(OC)c(OC)c2[nH]1)CC3CCl (centres undefined)	> 100 µM (inactive)	5.56 µM (inactive)	5.62 µM (inactive)	> 100 µM (inactive)	13.7 µM (inactive)	5.71	6.4 µM (inactive)	7.87 µM (inactive)	6.44 µM (inactive)	> 34.8 µM (inactive)	> 27.5 µM (inactive)	14.3 µM (inactive)	1.57 µM (inactive)	1.1 µM (active)	5.37 µM (inactive)	6.58 µM (inactive)	12.6 µM (inactive)	7.78 µM (inactive)	> 24.1 µM (inactive)	
c1cncc(C(Nc2cccc3cccnc23)Nc2cccc3cccnc23)c1	> 100 µM (inactive)	> 100 µM (inactive)	> 100 µM (inactive)	> 100 µM (inactive)	> 100 µM (inactive)	> 100	> 100 µM (inactive)	> 100 µM (inactive)	> 100 µM (inactive)	> 100 µM (inactive)	> 100 µM (inactive)				> 100 µM (inactive)	> 100 µM (inactive)	> 100 µM (inactive)	> 100 µM (inactive)		> 100 µM (inactive)
O=c1ccn2n1Cc1ccccc1C2	> 100 µM (inactive)	> 100 µM (inactive)	> 100 µM (inactive)	> 100 µM (inactive)	> 100 µM (inactive)	> 100	> 100 µM (inactive)	> 100 µM (inactive)	> 100 µM (inactive)	> 100 µM (inactive)	> 100 µM (inactive)	> 100 µM (inactive)	> 100 µM (inactive)	> 100 µM (inactive)	> 100 µM (inactive)	> 100 µM (inactive)	> 100 µM (inactive)	> 100 µM (inactive)	> 100 µM (inactive)	
CCN(CC)C(=O)COc1cc2c(O)c3c(O)c(C)c4c(c13)C(=O)C(C)(OC=CC(OC)C(C)C(OC(C)=O)C(C)C(O)C(C)C(O)C(C)C=CC=C(C)C(=O)N2)O4 (centres undefined)	> 100 µM (inactive)	> 100 µM (inactive)	> 100 µM (inactive)	> 100 µM (inactive)		> 100	> 100 µM (inactive)	> 100 µM (inactive)	> 100 µM (inactive)		> 100 µM (inactive)	> 100 µM (inactive)	> 100 µM (inactive)	> 100 µM (inactive)	> 100 µM (inactive)	> 100 µM (inactive)	> 100 µM (inactive)	> 100 µM (inactive)	> 100 µM (inactive)	> 100 µM (inactive)
N#C/C(=C\c1cc(Br)c(O)c(Br)c1)c1cccnc1		21 µM (inactive)	36.3 µM (inactive)	19.3 µM (inactive)		17.7	27.2 µM (inactive)	52.8 µM (inactive)	> 100 µM (inactive)	26.2 µM (inactive)	26.1 µM (inactive)	21.5 µM (inactive)	23.9 µM (inactive)	31.3 µM (inactive)	34.2 µM (inactive)	16.7 µM (inactive)	35.6 µM (inactive)	18.5 µM (inactive)	27.6 µM (inactive)	> 100 µM (inactive)
CCOc1cc2c(cc1O)C(N)C[C@@H]1[C@@H]2CC[C@]2(C)[C@@H](O)CC[C@@H]12 (some centres undefined)	83.9 µM (inactive)	49.5 µM (inactive)	34.8 µM (inactive)	41.1 µM (inactive)		45.7	43.7 µM (inactive)	52.6 µM (inactive)		> 10 µM (inactive)	26.9 µM (inactive)	92.7 µM (inactive)	33.3 µM (inactive)	15.2 µM (inactive)		37.9 µM (inactive)	83.2 µM (inactive)	32.7 µM (inactive)	42.8 µM (inactive)	23.4 µM (inactive)
[N-]=[N+]=CC(=O)C1(C(=O)C=[N+]=[N-])CC1		> 100 µM (inactive)	> 100 µM (inactive)	> 100 µM (inactive)		> 100	> 100 µM (inactive)	> 100 µM (inactive)		> 100 µM (inactive)	> 100 µM (inactive)	> 100 µM (inactive)	> 100 µM (inactive)	> 100 µM (inactive)	> 100 µM (inactive)	> 100 µM (inactive)	> 100 µM (inactive)	> 100 µM (inactive)	> 100 µM (inactive)	
O=C(Cc1ccccc1)N/N=C(/c1nc2ccc([N+](=O)[O-])cc2nc1O)C(O)c1ccco1 (centres undefined)		> 100 µM (inactive)	57.4 µM (inactive)	> 100 µM (inactive)		67.8	> 100 µM (inactive)	> 100 µM (inactive)		> 100 µM (inactive)	> 100 µM (inactive)	> 100 µM (inactive)	> 100 µM (inactive)	> 100 µM (inactive)	> 100 µM (inactive)	> 100 µM (inactive)	> 100 µM (inactive)	> 100 µM (inactive)	> 100 µM (inactive)	
COc1cccc(-c2cc(C(=O)Nc3ccc(Cl)cc3)nc(N)n2)c1		75 µM (inactive)	> 100 µM (inactive)	> 100 µM (inactive)		41.5	43.7 µM (inactive)	50.7 µM (inactive)		40 µM (inactive)	37.3 µM (inactive)	> 100 µM (inactive)	38.7 µM (inactive)	45.1 µM (inactive)	64.7 µM (inactive)	60.8 µM (inactive)	98.9 µM (inactive)	87.9 µM (inactive)	86.9 µM (inactive)	
CCCCCCCCCCOc1ccc(/N=N/c2nnc(-c3ccc(OCCCCC)cc3)s2)cc1	> 100 µM (inactive)	> 100 µM (inactive)	93.5 µM (inactive)		34.5 µM (inactive)	> 100	62.4 µM (inactive)	> 100 µM (inactive)	> 100 µM (inactive)	> 100 µM (inactive)	> 100 µM (inactive)		> 100 µM (inactive)		> 100 µM (inactive)	> 100 µM (inactive)	> 100 µM (inactive)	62.5 µM (inactive)	> 100 µM (inactive)	> 100 µM (inactive)
C[C@]12CCC(=O)C=C1CC[C@@H]1[C@@H]2CC[C@]2(C)C(=O)NC(=O)C[C@@H]12		> 100 µM (inactive)	> 100 µM (inactive)	> 100 µM (inactive)		> 100	> 100 µM (inactive)	> 100 µM (inactive)		> 100 µM (inactive)	> 100 µM (inactive)	> 100 µM (inactive)	> 100 µM (inactive)	> 100 µM (inactive)	> 100 µM (inactive)	> 100 µM (inactive)	> 100 µM (inactive)	> 100 µM (inactive)	> 100 µM (inactive)	
O=C(Nc1ccc(Cl)c(Cl)c1)C(=O)Nn1c(S)nc2ccccc2c1=O		76.9 µM (inactive)	> 100 µM (inactive)	> 100 µM (inactive)		> 100	> 100 µM (inactive)	> 100 µM (inactive)		> 100 µM (inactive)	> 100 µM (inactive)	> 100 µM (inactive)	> 100 µM (inactive)	> 100 µM (inactive)	> 100 µM (inactive)	> 100 µM (inactive)	> 100 µM (inactive)	> 100 µM (inactive)	> 100 µM (inactive)	
CC(C)(C)c1cc(Oc2ccc(C#N)c(C#N)c2)cc(C(C)(C)C)c1		> 100 µM (inactive)	> 100 µM (inactive)	> 100 µM (inactive)		48.3	> 100 µM (inactive)	> 100 µM (inactive)		> 100 µM (inactive)	> 100 µM (inactive)	> 100 µM (inactive)	> 100 µM (inactive)	19.8 µM (inactive)	> 100 µM (inactive)	85.5 µM (inactive)	> 100 µM (inactive)	> 100 µM (inactive)	> 100 µM (inactive)	
